Laboratory results taken from patent US20100216779A1 (GLAXOSMITHKLINE LLC, priority 2007, published 2010).

Experiments:
Type in all cases: cell-based
[1] = biological target: T1, IR (NIH-3T3 cells over expressing human IGF-1R or IR) (Homo sapiens, UniProt P06213); assay: IR cellular autophosphorylation (DELFIA); conditions: NIH-3T3 cells over expressing IR, insulin stimulated
T1 construct: expressed in transfected cells; host or cells: NIH-3T3 (mouse fibroblasts)
Outline: (§1)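 Readout: DELFIA on lysates, with anti-IGF-1R or anti-IR capture and europium anti-pTyr detection, expressed relative to 100% ligand-stimulated signal. Human IGF-1R- or IR-overexpressing NIH-3T3 cells got compound (1.5 nM–30 uM) for 2 h before 15 min IGF-1 (30 ng/mL) or insulin (3 ug/mL).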

[2] = system: NCI-H929 (multiple myeloma); assay: Inhibition of cell proliferation, CellTiter-Glo, NCI-H929; conditions: Homo sapiens, 72 h
Outline: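 Cells were grown in medium with 10% FBS at 37° C, 5% CO2. Cell number was read as CellTiter-Glo luminescence (cellular ATP), with untreated wells as control.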

[3] = biological target: T2, human IGF-1R (NIH-3T3 cells over expressing human IGF-1R) (Homo sapiens, UniProt P08069); assay: IGF-1R cellular autophosphorylation (DELFIA); conditions: IGF-1 stimulated
T2 construct: expressed in transfected cells; host or cells: NIH-3T3 (mouse fibroblasts)
Outline: as §1

COLO205 (colon) = assay: Inhibition of cell proliferation, CellTiter-Glo, COLO205; conditions: Homo sapiens, COLO 205, 72 h
Outline: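 Exponentially growing COLO205 cells in medium with 10% FBS were plated below 2000 cells/well at 37 °C, 5% CO2. Untreated wells served as controls.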

T1 sequence (P06213 28-1382): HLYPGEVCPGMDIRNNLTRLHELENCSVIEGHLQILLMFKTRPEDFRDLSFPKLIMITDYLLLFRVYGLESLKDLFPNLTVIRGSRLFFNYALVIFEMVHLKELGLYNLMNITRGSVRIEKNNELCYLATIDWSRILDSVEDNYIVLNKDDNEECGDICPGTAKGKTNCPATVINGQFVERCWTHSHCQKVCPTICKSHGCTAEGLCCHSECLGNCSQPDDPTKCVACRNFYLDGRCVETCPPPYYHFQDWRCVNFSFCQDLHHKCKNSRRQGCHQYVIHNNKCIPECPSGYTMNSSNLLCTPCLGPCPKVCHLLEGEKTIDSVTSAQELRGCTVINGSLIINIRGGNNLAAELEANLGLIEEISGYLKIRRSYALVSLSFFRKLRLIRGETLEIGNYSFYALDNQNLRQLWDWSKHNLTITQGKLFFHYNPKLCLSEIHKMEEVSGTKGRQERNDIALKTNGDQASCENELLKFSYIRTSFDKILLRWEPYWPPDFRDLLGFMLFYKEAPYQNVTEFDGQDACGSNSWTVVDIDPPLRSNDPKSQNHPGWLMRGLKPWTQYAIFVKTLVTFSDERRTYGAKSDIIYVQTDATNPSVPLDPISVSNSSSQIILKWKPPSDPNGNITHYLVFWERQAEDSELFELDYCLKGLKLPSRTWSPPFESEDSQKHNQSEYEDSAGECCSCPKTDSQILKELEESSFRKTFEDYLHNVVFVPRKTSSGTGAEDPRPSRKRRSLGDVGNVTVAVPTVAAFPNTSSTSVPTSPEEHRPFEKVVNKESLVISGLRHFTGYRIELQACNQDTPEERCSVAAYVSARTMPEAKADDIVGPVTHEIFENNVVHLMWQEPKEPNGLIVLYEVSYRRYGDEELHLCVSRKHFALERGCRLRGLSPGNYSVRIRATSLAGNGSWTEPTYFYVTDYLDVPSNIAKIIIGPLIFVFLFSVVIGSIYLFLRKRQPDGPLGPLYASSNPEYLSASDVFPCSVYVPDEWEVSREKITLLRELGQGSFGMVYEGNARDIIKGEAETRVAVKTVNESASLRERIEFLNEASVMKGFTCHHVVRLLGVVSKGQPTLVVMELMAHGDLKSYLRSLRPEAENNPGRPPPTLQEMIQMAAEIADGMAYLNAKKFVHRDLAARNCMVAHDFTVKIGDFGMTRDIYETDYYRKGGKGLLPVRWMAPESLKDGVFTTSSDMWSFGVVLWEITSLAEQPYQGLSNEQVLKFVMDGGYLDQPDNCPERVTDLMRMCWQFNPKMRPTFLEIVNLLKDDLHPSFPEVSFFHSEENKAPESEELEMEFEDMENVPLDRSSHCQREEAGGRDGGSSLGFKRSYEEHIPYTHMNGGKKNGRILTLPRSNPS
T2 sequence (P08069 31-1367): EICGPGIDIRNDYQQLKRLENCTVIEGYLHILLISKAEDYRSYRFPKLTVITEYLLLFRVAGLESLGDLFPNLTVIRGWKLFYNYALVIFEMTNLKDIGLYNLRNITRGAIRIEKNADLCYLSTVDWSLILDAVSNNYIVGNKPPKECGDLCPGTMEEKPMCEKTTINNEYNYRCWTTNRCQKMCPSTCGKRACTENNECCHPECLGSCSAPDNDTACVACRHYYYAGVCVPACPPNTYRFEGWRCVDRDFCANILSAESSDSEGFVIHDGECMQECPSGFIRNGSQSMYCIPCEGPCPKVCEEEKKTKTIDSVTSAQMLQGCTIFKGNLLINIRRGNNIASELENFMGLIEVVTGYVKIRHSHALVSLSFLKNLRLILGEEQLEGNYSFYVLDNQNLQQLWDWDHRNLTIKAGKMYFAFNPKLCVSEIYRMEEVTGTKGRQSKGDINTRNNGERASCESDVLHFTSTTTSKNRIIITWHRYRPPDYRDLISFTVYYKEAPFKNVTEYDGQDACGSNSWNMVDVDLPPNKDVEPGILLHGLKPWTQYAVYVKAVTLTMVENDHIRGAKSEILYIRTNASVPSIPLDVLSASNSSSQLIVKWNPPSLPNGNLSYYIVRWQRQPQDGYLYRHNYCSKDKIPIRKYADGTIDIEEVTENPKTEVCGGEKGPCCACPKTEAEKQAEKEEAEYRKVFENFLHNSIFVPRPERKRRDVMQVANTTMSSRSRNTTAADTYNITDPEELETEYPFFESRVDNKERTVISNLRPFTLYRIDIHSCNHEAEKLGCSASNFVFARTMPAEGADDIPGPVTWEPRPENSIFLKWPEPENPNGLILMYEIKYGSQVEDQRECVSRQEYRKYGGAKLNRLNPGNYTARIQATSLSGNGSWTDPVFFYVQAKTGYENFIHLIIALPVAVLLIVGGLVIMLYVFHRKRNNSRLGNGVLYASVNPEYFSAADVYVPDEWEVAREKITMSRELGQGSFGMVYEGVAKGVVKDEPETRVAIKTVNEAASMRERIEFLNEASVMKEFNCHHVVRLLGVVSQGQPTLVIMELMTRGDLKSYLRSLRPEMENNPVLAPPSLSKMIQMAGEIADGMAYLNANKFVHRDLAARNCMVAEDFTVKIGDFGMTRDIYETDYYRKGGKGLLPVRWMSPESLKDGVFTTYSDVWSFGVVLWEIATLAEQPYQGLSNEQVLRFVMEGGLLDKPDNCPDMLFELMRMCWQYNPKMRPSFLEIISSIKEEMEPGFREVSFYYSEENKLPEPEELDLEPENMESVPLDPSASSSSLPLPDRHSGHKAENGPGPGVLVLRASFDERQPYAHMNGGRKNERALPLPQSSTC

Row | SMILES | IC50 [1] [nM] | IC50 [2] [nM] | IC50 [3] [nM] | IC50 (COLO205 (colon)) [nM]
1 | COc1cc(N2CCN3CCOC[C@@H]3C2)ccc1Nc1nccc(-c2c(-c3ccc(OC)c(C(=O)Nc4c(F)cccc4F)c3)nc3ccccn23)n1 [Example 124, N-(2,6-difluorophenyl)-5-[3-(2-{[4-[(9aS)-hexahydropyrazino[2,1-c][1,4]oxazin-8(1H)-yl]-2-(methyloxy)phenyl]amino}-4-pyrimidinyl)imidazo[1,2-a]pyridin-2-yl]-2-(methyloxy)-benzamide] | < 100 | < 250 | < 100 | > 1000
2 | CCCN1CCC(c2ccc(Nc3nccc(-c4c(-c5ccc(OC)c(C(=O)Nc6c(F)cccc6F)c5)nc5ccccn45)n3)c(OC)c2)CC1 [Example 137, N-(2,6-difluorophenyl)-2-(methyloxy)-5-[3-(2-{[2-(methyloxy)-4-(1-propyl-4-piperidinyl)phenyl]amino}-4-pyrimidinyl)imidazo[1,2-a]pyridin-2-yl]benzamide] | < 100 | < 250 | < 100 | 250 to 1000
3 | CCCN1CCC(c2ccc(Nc3nccc(-c4c(-c5cccc(C(=O)Nc6c(F)cccc6F)c5)nc5ccccn45)n3)c(OC)c2)CC1 [Example 138, N-(2,6-difluorophenyl)-3-[3-(2-{[2-(methyloxy)-4-(1-propyl-4-piperidinyl)phenyl]amino}-4-pyrimidinyl)imidazo[1,2-a]pyridin-2-yl]benzamide] | < 100 | < 250 | < 100 | 250 to 1000
4 | CCOc1cc(N2CCN(CCS(C)(=O)=O)CC2)ccc1Nc1nccc(-c2c(-c3ccc(OC)c(C(=O)Nc4c(F)cccc4F)c3)nc3ccccn23)n1 [Example 143, N-(2,6-difluorophenyl)-5-(3-{2-[(2-(ethyloxy)-4-{4-[2-(methylsulfonyl)ethyl)-1-piperazinyl}phenyl)amino]-4-pyrimidinyl}imidazo[1,2-a]pyridin-2-yl)-2-(methyloxy)benzamide] | < 100 | < 250 | < 100 | 250 to 1000
5 | CCOc1cc(N2CCN(CCS(C)(=O)=O)CC2)ccc1Nc1nccc(-c2c(-c3ccc(OCC)c(C(=O)Nc4c(F)cccc4F)c3)nc3ccccn23)n1 [Example 144, N-(2,6-difluorophenyl)-2-(ethyloxy)-5-(3-{2-[(2-(ethyloxy)-4-{4-[2-(methylsulfonyl)ethyl)-1-piperazinyl}phenyl)amino]-4-pyrimidinyl}imidazo[1,2-a]pyridin-2-yl)benzamide] | < 100 | < 250 | < 100 | < 250
6 | COc1cc(N2CCN(CCS(C)(=O)=O)CC2)c(C)cc1Nc1nccc(-c2c(-c3cccc(C(=O)Nc4c(F)cccc4F)c3)nc3ccccn23)n1 [Example 148, N-(2,6-difluorophenyl)-3-(3-{2-[(5-methyl-2-(methyloxy)-4-{4-[2-(methylsulfonyl)ethyl]-1-piperazinyl}phenyl)amino]-4-pyrimidinyl}imidazo[1,2-a]pyridin-2-yl)benzamide] | < 100 | < 250 | < 100 | < 250
7 | COc1cc(N2CCN(CCS(C)(=O)=O)CC2)c(C)cc1Nc1nccc(-c2c(-c3ccc(OC)c(C(=O)Nc4c(F)cccc4F)c3)nc3ccccn23)n1 [Example 149, N-(2,6-difluorophenyl)-5-(3-{2-[(5-methyl-2-(methyloxy)-4-{4-[2-(methylsulfonyl)ethyl]-1-piperazinyl}phenyl)amino]-4-pyrimidinyl}imidazo[1,2-a]pyridin-2-yl)-2-(methyloxy)benzamide] | < 100 | < 250 | < 100 | < 250
8 | CCOc1ccc(-c2nc3ccccn3c2-c2ccnc(Nc3cc(C)c(N4CCN(CCS(C)(=O)=O)CC4)cc3OC)n2)cc1C(=O)Nc1c(F)cccc1F [Example 150, N-(2,6-difluorophenyl)-2-(ethyloxy)-5-(3-{2-[(5-methyl-2-(methyloxy)-4-{4-[2-(methylsulfonyl)ethyl]-1-piperazinyl}phenyl)amino]-4-pyrimidinyl}imidazo[1,2-a]pyridin-2-yl)benzamide] | < 100 | < 250 | < 100 | < 250
9 | CCCN1CCN(c2ccc(Nc3nccc(-c4c(-c5ccc(OC)c(C(=O)Nc6c(F)cccc6F)c5)nc5ccccn45)n3)c(OCC)c2)CC1 [Example 151, N-(2,6-difluorophenyl)-5-[3-(2-{[2-(ethyloxy)-4-[4-propyl-1-piperazinyl)phenyl]amino}-4-pyrimidinyl)imidazo[1,2-a]pyridin-2-yl]-2-(methyloxy)benzamide] | < 100 | < 250 | < 100 | 250 to 1000
10 | CCCN1CCN(c2ccc(Nc3nccc(-c4c(-c5ccc(OCC)c(C(=O)Nc6c(F)cccc6F)c5)nc5ccccn45)n3)c(OCC)c2)CC1 [Example 152, N-(2,6-difluorophenyl)-2-(ethyloxy)-5-[3-(2-{[2-(ethyloxy)-4-(4-propyl-1-piperazinyl)phenyl]amino}-4-pyrimidinyl)imidazo[1,2-a]pyridin-2-yl]benzamide] | < 100 | < 250 | < 100 | 250 to 1000
11 | CCCN1CCN(c2ccc(Nc3nccc(-c4c(-c5cccc(C(=O)Nc6c(F)cccc6F)c5)nc5ccccn45)n3)c(OCC)c2)CC1 [Example 153, N-(2,6-difluorophenyl)-3-[3-(2-{[2-(ethyloxy)-4-(4-propyl-1-piperazinyl)phenyl]amino}-4-pyrimidinyl)imidazo[1,2-a]pyridin-2-yl]benzamide] | < 100 | 250 to 1000 | 100 to 500 | 250 to 1000
12 | CCCN1CCC(c2ccc(Nc3nccc(-c4c(-c5ccc(OC)c(C(=O)Nc6c(F)cccc6F)c5)nc5ccccn45)n3)c(OCC)c2)CC1 [Example 154, N-(2,6-difluorophenyl)-5-[3-(2-{[2-(ethyloxy)-4-(1-propyl-4-piperidinyl)phenyl]amino}-4-pyrimidinyl)imidazo[1,2-a]pyridin-2-yl]-2-(methyloxy)benzamide] | < 100 | < 250 | < 100 | 250 to 1000
13 | CCCN1CCC(c2ccc(Nc3nccc(-c4c(-c5cccc(C(=O)Nc6c(F)cccc6F)c5)nc5ccccn45)n3)c(OCC)c2)CC1 [Example 155, N-(2,6-difluorophenyl)-3-[3-(2-{[2-(ethyloxy)-4-(1-propyl-4-piperidinyl)phenyl]amino}-4-pyrimidinyl)imidazo[1,2-a]pyridin-2-yl]benzamide] | < 100 | < 250 | < 100 | 250 to 1000
14 | CCCN1CCC(c2ccc(Nc3nccc(-c4c(-c5ccc(OCC)c(C(=O)Nc6c(F)cccc6F)c5)nc5ccccn45)n3)c(OCC)c2)CC1 [Example 156, N-(2,6-difluorophenyl)-2-(ethyloxy)-5-[3-(2-{[2-(ethyloxy)-4-(1-propyl-4-piperidinyl)phenyl]amino}-4-pyrimidinyl)imidazo[1,2-a]pyridin-2-yl]benzamide] | < 100 | < 250 | < 100 | 250 to 1000
15 | CCCN1CCC(c2cc(OC)c(Nc3nccc(-c4c(-c5ccc(OC)c(C(=O)Nc6c(F)cccc6F)c5)nc5ccccn45)n3)cc2C)CC1 [Example 157, N-(2,6-difluorophenyl)-5-[3-(2-{[5-methyl-2-(methyloxy)-4-(1-propyl-4-piperidinyl)phenyl]-amino}-4-pyrimidinyl)imidazo[1,2-a]pyridin-2-yl]-2-(methyloxy)benzamide] | < 100 | < 250 | < 100 | < 250
16 | CCCN1CCC(c2cc(OC)c(Nc3nccc(-c4c(-c5ccc(OCC)c(C(=O)Nc6c(F)cccc6F)c5)nc5ccccn45)n3)cc2C)CC1 [Example 158, N-(2,6-difluorophenyl)-2-(ethyloxy)-5-[3-(2-{[5-methyl-2-(methyloxy)-4-(1-propyl-4-piperidinyl)phenyl]amino}-4-pyrimidinyl)imidazo[1,2-a]pyridin-2-yl]benzamide] | < 100 | < 250 | < 100 | < 250
17 | CCCN1CCC(c2cc(OC)c(Nc3nccc(-c4c(-c5cccc(C(=O)Nc6c(F)cccc6F)c5)nc5ccccn45)n3)cc2C)CC1 [Example 159, N-(2,6-difluorophenyl)-3-[3-(2-{[5-methyl-2-(methyloxy)-4-(1-propyl-4-piperidinyl)phenyl]amino}-4-pyrimidinyl)imidazo[1,2-a]pyridin-2-yl]benzamide] | < 100 | < 250 | < 100 | 250 to 1000
18 | COc1cc(C2CCN(CC(C)C)CC2)ccc1Nc1nccc(-c2c(-c3ccc(OC)c(C(=O)Nc4c(F)cccc4F)c3)nc3ccccn23)n1 [Example 160, N-(2,6-difluorophenyl)-2-(methyloxy)-5-{3-[2-({2-(methyloxy)-4-[1-(2-methylpropyl)-4-piperidinyl]phenyl}amino)-4-pyrimidinyl]imidazo[1,2-a]pyridin-2-yl}benzamide] | < 100 | < 250 | < 100 | 250 to 1000
